Laboratory results taken from patent US9149038B2, “4-amino-6-(heterocyclic)picolinates and 6-amino-2-(heterocyclic)pyrimidine-4-carboxylates and their use as herbicides” (Dow AgroSciences LLC, priority 2013, dated 2015).
Like-named read-outs stand apart in the source and are kept apart here.

Columns and labels:
[1] = tested on: Key Broadleaf Weed and Crop Species; test: Post-Emergent Test II: postemergent herbicidal activity, visual rating after 14 d (Table 7); assay type: in vivo; conditions: post-emergence, 336 h; for pest or weed control at 35 g/ha: 35 g ai/ha; for pest or weed control at 70 g/ha: 70 g ai/ha; for pest or weed control at 140 g/ha: 140 g ai/ha
How it was run: (§1)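 Track-sprayed young seedlings (first/second true leaf) at 187 L/ha across a 2-fold rate series from the high rate down to 1/16×. Kept in greenhouse at 23-29° C day, subirrigated. Injury rated by eye after 14 d, 0 = no injury, 100 = complete kill.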

[2] = tested on: Key Grass and Sedge Weeds as well as Grass Crops; test: Post-Emergent Test II: postemergent herbicidal activity, visual rating after 14 d (Table 8); assay type: in vivo; conditions: post-emergence, 336 h; for pest or weed control at 35 g/ha: 35 g ai/ha; for pest or weed control at 70 g/ha: 70 g ai/ha; for pest or weed control at 140 g/ha: 140 g ai/ha
How it was run: as §1

[3] = lambsquarters (Chenopodium album), read-out: Visual Growth Reduction (%) 14 Days After Application CHEAL
[4] = oilseed rape, canola (Brassica napus), read-out: Visual Growth Reduction (%) 14 Days After Application BRSNN
[5] = redroot pigweed (Amaranthus retroflexus), read-out: Visual Growth Reduction (%) 14 Days After Application AMARE
[6] = sunflower (Helianthus annuus), read-out: Visual Growth Reduction (%) 14 Days After Application HELAN
[7] = velvetleaf (Abutilon theophrasti), read-out: Visual Growth Reduction (%) 14 Days After Application ABUTH
[8] = wild poinsettia (Euphorbia heterophylla), read-out: Visual Growth Reduction (%) 14 Days After Application EPHHL
[9] = barnyardgrass (Echinochloa crus-galli), read-out: Visual Growth Reduction (%) 14 Days After Application ECHCG
[10] = giant foxtail (Setaria faberi), read-out: Visual Growth Reduction (%) 14 Days After Application SETFA
[11] = maize, corn (Zea mays), read-out: Visual Growth Reduction (%) 14 Days After Application ZEAMX
[12] = rice (Oryza sativa), read-out: Visual Growth Reduction (%) 14 Days After Application ORYSA
[13] = wheat, spring (Triticum aestivum), read-out: Visual Growth Reduction (%) 14 Days After Application TRZAS
[14] = yellow nutsedge (Cyperus esculentus), read-out: Visual Growth Reduction (%) 14 Days After Application CYPES

Structure (SMILES): COC(=O)c1nc(-c2ccc3c(c2)OC(F)(F)O3)nc(N)c1OC [Compound 62]
- pest or weed control at 35 g/ha [1, 3]: 0 to 29%
- pest or weed control at 70 g/ha [1, 3]: 0 to 29%
- pest or weed control at 140 g/ha [1, 3]: 0 to 29%
- pest or weed control at 35 g/ha [1, 4]: 45 to 59%
- pest or weed control at 70 g/ha [1, 4]: 45 to 59%
- pest or weed control at 140 g/ha [1, 4]: 60 to 74%
- pest or weed control at 35 g/ha [1, 5]: 0 to 29%
- pest or weed control at 70 g/ha [1, 5]: 0 to 29%
- pest or weed control at 140 g/ha [1, 5]: 0 to 29%
- pest or weed control at 35 g/ha [1, 6]: 85 to 94%
- pest or weed control at 70 g/ha [1, 6]: 75 to 84%
- pest or weed control at 140 g/ha [1, 6]: 95 to 100%
- pest or weed control at 35 g/ha [1, 7]: 45 to 59%
- pest or weed control at 70 g/ha [1, 7]: 85 to 94%
- pest or weed control at 140 g/ha [1, 7]: 85 to 94%
- pest or weed control at 35 g/ha [1, 8]: 95 to 100%
- pest or weed control at 70 g/ha [1, 8]: 95 to 100%
- pest or weed control at 140 g/ha [1, 8]: 95 to 100%
- pest or weed control at 35 g/ha [2, 9]: 85 to 94%
- pest or weed control at 70 g/ha [2, 9]: 85 to 94%
- pest or weed control at 140 g/ha [2, 9]: 95 to 100%
- pest or weed control at 35 g/ha [2, 10]: 0 to 29%
- pest or weed control at 70 g/ha [2, 10]: 30 to 44%
- pest or weed control at 140 g/ha [2, 10]: 60 to 74%
- pest or weed control at 35 g/ha [2, 11]: 95 to 100%
- pest or weed control at 70 g/ha [2, 11]: 95 to 100%
- pest or weed control at 140 g/ha [2, 11]: 95 to 100%
- pest or weed control at 35 g/ha [2, 12]: 0 to 29%
- pest or weed control at 70 g/ha [2, 12]: 0 to 29%
- pest or weed control at 140 g/ha [2, 12]: 0 to 29%
- pest or weed control at 35 g/ha [2, 13]: 0 to 29%
- pest or weed control at 70 g/ha [2, 13]: 0 to 29%
- pest or weed control at 140 g/ha [2, 13]: 0 to 29%
- pest or weed control at 35 g/ha [2, 14]: 95 to 100%
- pest or weed control at 70 g/ha [2, 14]: 95 to 100%
- pest or weed control at 140 g/ha [2, 14]: 95 to 100%

Structure (SMILES): Nc1c(F)c(-c2cc3c(cc2F)OC(F)(F)O3)nc(C(=O)O)c1Cl [Compound 13]
- pest or weed control at 35 g/ha [1, 3]: 60 to 74%
- pest or weed control at 70 g/ha [1, 3]: 85 to 94%
- pest or weed control at 140 g/ha [1, 3]: 85 to 94%
- pest or weed control at 35 g/ha [1, 4]: 0 to 29%
- pest or weed control at 70 g/ha [1, 4]: 30 to 44%
- pest or weed control at 140 g/ha [1, 4]: 45 to 59%
- pest or weed control at 35 g/ha [1, 5]: 0 to 29%
- pest or weed control at 70 g/ha [1, 5]: 0 to 29%
- pest or weed control at 140 g/ha [1, 5]: 0 to 29%
- pest or weed control at 35 g/ha [1, 6]: 85 to 94%
- pest or weed control at 70 g/ha [1, 6]: 85 to 94%
- pest or weed control at 140 g/ha [1, 6]: 85 to 94%
- pest or weed control at 35 g/ha [1, 7]: 60 to 74%
- pest or weed control at 70 g/ha [1, 7]: 75 to 84%
- pest or weed control at 140 g/ha [1, 7]: 75 to 84%
- pest or weed control at 35 g/ha [1, 8]: 45 to 59%
- pest or weed control at 70 g/ha [1, 8]: 75 to 84%
- pest or weed control at 140 g/ha [1, 8]: 95 to 100%
- pest or weed control at 35 g/ha [2, 9]: 75 to 84%
- pest or weed control at 70 g/ha [2, 9]: 95 to 100%
- pest or weed control at 140 g/ha [2, 9]: 85 to 94%
- pest or weed control at 35 g/ha [2, 10]: 75 to 84%
- pest or weed control at 70 g/ha [2, 10]: 75 to 84%
- pest or weed control at 140 g/ha [2, 10]: 85 to 94%
- pest or weed control at 35 g/ha [2, 11]: 60 to 74%
- pest or weed control at 70 g/ha [2, 11]: 60 to 74%
- pest or weed control at 140 g/ha [2, 11]: 75 to 84%
- pest or weed control at 35 g/ha [2, 12]: 0 to 29%
- pest or weed control at 70 g/ha [2, 12]: 0 to 29%
- pest or weed control at 140 g/ha [2, 12]: 0 to 29%
- pest or weed control at 35 g/ha [2, 13]: 45 to 59%
- pest or weed control at 70 g/ha [2, 13]: 60 to 74%
- pest or weed control at 140 g/ha [2, 13]: 60 to 74%
- pest or weed control at 35 g/ha [2, 14]: 45 to 59%
- pest or weed control at 70 g/ha [2, 14]: 75 to 84%
- pest or weed control at 140 g/ha [2, 14]: 95 to 100%
